Test results reported in patent US11154529B2, “Phosphaplatin liquid formulations” (Phosplatin Therapeutics Inc., priority 2016, dated 2021).

Assay: Ready-to-use formulation stability at 25° C./60% RH, 5 mg/mL (R,R)-pyrodach-2 in 10 mM Bicarbonate Buffer at pH 8.6, 10 mL vials
Format: physicochemical

In the case of `O=P1(O)OP(=O)(O)[O][Pt]2([NH][C@@H]3CCCC[C@H]3[NH]2)[O]1` (stereo partly drawn) [(R,R)-pyrodach-2, (R,R)-trans-1,2-cyclohexanediamine-(dihydrogenpyrophosphato)platinum(II)], the “Potency (Assay)” value (1 month) is reported as 98.9%, the “Purity (% Area)” value (1 month) is reported as 97.44% and the “Unknown Impurities RRT~0.29” value (1 month) is reported as 0.16%. The “Unknown Impurities RRT~0.42” value (1 month) was 0.21%, the “Unknown Impurities RRT~0.49” value (1 month) was 0.75% and the “Unknown Impurities RRT~0.59” value (1 month) was 0.15%. For the same compound, the “Unknown Impurities RRT~0.73” value (1 month) was 1.03%, the “Unknown Impurities RRT~1.82” value (1 month) was “ND (ND = Not Detected, or <0.05%)” and the “Unknown Impurities RRT~2.85” value (1 month) was “ND (ND = Not Detected, or <0.05%)”. For the same compound, the “Unknown Impurities RRT~3.00” value (1 month) was “ND (ND = Not Detected, or <0.05%)”, the “Unknown Impurities RRT~3.15” value (1 month) was “ND (ND = Not Detected, or <0.05%)” and the “Unknown Impurities RRT~3.30” value (1 month) was “ND (ND = Not Detected, or <0.05%)”. The “Unknown Impurities RRT~3.45” value (1 month) was “ND (ND = Not Detected, or <0.05%)”, the “Unknown Impurities RRT~3.74” value (1 month) was 0.08% and the “Unknown Impurities RRT~4.27” value (1 month) was “ND (ND = Not Detected, or <0.05%)”. The “Unknown Impurities RRT~4.99” value (1 month) was “ND (ND = Not Detected, or <0.05%)”, the pH (1 month) was 8.68 and the “Potency (Assay)” value (1 week) was 101.7%. The “Purity (% Area)” value (1 week) was 97.74%, the “Unknown Impurities RRT~0.29” value (1 week) was 0.11% and the “Unknown Impurities RRT~0.42” value (1 week) was 0.05%. The “Unknown Impurities RRT~0.49” value (1 week) was 0.78%, the “Unknown Impurities RRT~0.59” value (1 week) was 0.06% and the “Unknown Impurities RRT~0.73” value (1 week) was 1.12%. The “Unknown Impurities RRT~1.82” value (1 week) was “ND (ND = Not Detected, or <0.05%)”, the “Unknown Impurities RRT~2.85” value (1 week) was “ND (ND = Not Detected, or <0.05%)” and the “Unknown Impurities RRT~3.00” value (1 week) was “ND (ND = Not Detected, or <0.05%)”. The “Unknown Impurities RRT~3.15” value (1 week) was “ND (ND = Not Detected, or <0.05%)”, the “Unknown Impurities RRT~3.30” value (1 week) was “ND (ND = Not Detected, or <0.05%)” and the “Unknown Impurities RRT~3.45” value (1 week) was “ND (ND = Not Detected, or <0.05%)”. The “Unknown Impurities RRT~3.74” value (1 week) was “ND (ND = Not Detected, or <0.05%)”, the “Unknown Impurities RRT~4.27” value (1 week) was “ND (ND = Not Detected, or <0.05%)” and the “Unknown Impurities RRT~4.99” value (1 week) was “ND (ND = Not Detected, or <0.05%)”. For the same compound, the pH (1 week) was 8.57, the “Potency (Assay)” value (2 month) was 100.4% and the “Purity (% Area)” value (2 month) was 96.45%. The “Unknown Impurities RRT~0.29” value (2 month) was 0.19%, the “Unknown Impurities RRT~0.42” value (2 month) was 0.56% and the “Unknown Impurities RRT~0.49” value (2 month) was 0.79%. For the same compound, the “Unknown Impurities RRT~0.59” value (2 month) was 0.26%, the “Unknown Impurities RRT~0.73” value (2 month) was 0.97% and the “Unknown Impurities RRT~1.82” value (2 month) was “ND (ND = Not Detected, or <0.05%)”. For the same compound, the “Unknown Impurities RRT~2.85” value (2 month) was 0.12%, the “Unknown Impurities RRT~3.00” value (2 month) was “ND (ND = Not Detected, or <0.05%)” and the “Unknown Impurities RRT~3.15” value (2 month) was “ND (ND = Not Detected, or <0.05%)”. For the same compound, the “Unknown Impurities RRT~3.30” value (2 month) was “ND (ND = Not Detected, or <0.05%)”, the “Unknown Impurities RRT~3.45” value (2 month) was 0.05% and the “Unknown Impurities RRT~3.74” value (2 month) was 0.31%. The “Unknown Impurities RRT~4.27” value (2 month) was “ND (ND = Not Detected, or <0.05%)”, the “Unknown Impurities RRT~4.99” value (2 month) was 0.07% and the pH (2 month) was 8.73. For the same compound, the “Potency (Assay)” value (2 week) was 99.9%, the “Purity (% Area)” value (2 week) was 97.77% and the “Unknown Impurities RRT~0.29” value (2 week) was 0.12%. For the same compound, the “Unknown Impurities RRT~0.42” value (2 week) was 0.10%, the “Unknown Impurities RRT~0.49” value (2 week) was 0.77% and the “Unknown Impurities RRT~0.59” value (2 week) was “ND (ND = Not Detected, or <0.05%)”. The “Unknown Impurities RRT~0.73” value (2 week) was 1.17%, the “Unknown Impurities RRT~1.82” value (2 week) was “ND (ND = Not Detected, or <0.05%)” and the “Unknown Impurities RRT~2.85” value (2 week) was “ND (ND = Not Detected, or <0.05%)”. The “Unknown Impurities RRT~3.00” value (2 week) was “ND (ND = Not Detected, or <0.05%)”, the “Unknown Impurities RRT~3.15” value (2 week) was “ND (ND = Not Detected, or <0.05%)” and the “Unknown Impurities RRT~3.30” value (2 week) was “ND (ND = Not Detected, or <0.05%)”. For the same compound, the “Unknown Impurities RRT~3.45” value (2 week) was “ND (ND = Not Detected, or <0.05%)”, the “Unknown Impurities RRT~3.74” value (2 week) was “ND (ND = Not Detected, or <0.05%)” and the “Unknown Impurities RRT~4.27” value (2 week) was “ND (ND = Not Detected, or <0.05%)”. For the same compound, the “Unknown Impurities RRT~4.99” value (2 week) was “ND (ND = Not Detected, or <0.05%)”, the pH (2 week) was 8.64 and the “Potency (Assay)” value (3 month) was 101.6%. The “Purity (% Area)” value (3 month) was 96.08%, the “Unknown Impurities RRT~0.29” value (3 month) was 0.27% and the “Unknown Impurities RRT~0.42” value (3 month) was 0.76%. For the same compound, the “Unknown Impurities RRT~0.49” value (3 month) was 0.78%, the “Unknown Impurities RRT~0.59” value (3 month) was 0.25% and the “Unknown Impurities RRT~0.73” value (3 month) was 0.92%. For the same compound, the “Unknown Impurities RRT~1.82” value (3 month) was “ND (ND = Not Detected, or <0.05%)”, the “Unknown Impurities RRT~2.85” value (3 month) was 0.17% and the “Unknown Impurities RRT~3.00” value (3 month) was “ND (ND = Not Detected, or <0.05%)”. For the same compound, the “Unknown Impurities RRT~3.15” value (3 month) was “ND (ND = Not Detected, or <0.05%)”, the “Unknown Impurities RRT~3.30” value (3 month) was “ND (ND = Not Detected, or <0.05%)” and the “Unknown Impurities RRT~3.45” value (3 month) was “ND (ND = Not Detected, or <0.05%)”. The “Unknown Impurities RRT~3.74” value (3 month) was 0.40%, the “Unknown Impurities RRT~4.27” value (3 month) was 0.06% and the “Unknown Impurities RRT~4.99” value (3 month) was 0.14%. The pH (3 month) was 9.01, the “Potency (Assay)” value (3 week) was 100.3% and the “Purity (% Area)” value (3 week) was 97.33%. For the same compound, the “Unknown Impurities RRT~0.29” value (3 week) was 0.16%, the “Unknown Impurities RRT~0.42” value (3 week) was 0.15% and the “Unknown Impurities RRT~0.49” value (3 week) was 0.76%. The “Unknown Impurities RRT~0.59” value (3 week) was 0.12%, the “Unknown Impurities RRT~0.73” value (3 week) was 1.26% and the “Unknown Impurities RRT~1.82” value (3 week) was “ND (ND = Not Detected, or <0.05%)”.
